Patent publication US9273057B2 (Bristol-Myers Squibb Company, priority 2012, dated 2016)

Biological target: CK2A1 (CK2α/β) (Homo sapiens, UniProt P68400)
Assay: CK2 kinase assay, CK2A1 (CK2α/β)
Format: biochemical
Conditions: CK2A1 (CK2α/β) (IC50, nM), Table A

Chain of CK2A1 (CK2α/β) (P68400 whole entry, species assumed): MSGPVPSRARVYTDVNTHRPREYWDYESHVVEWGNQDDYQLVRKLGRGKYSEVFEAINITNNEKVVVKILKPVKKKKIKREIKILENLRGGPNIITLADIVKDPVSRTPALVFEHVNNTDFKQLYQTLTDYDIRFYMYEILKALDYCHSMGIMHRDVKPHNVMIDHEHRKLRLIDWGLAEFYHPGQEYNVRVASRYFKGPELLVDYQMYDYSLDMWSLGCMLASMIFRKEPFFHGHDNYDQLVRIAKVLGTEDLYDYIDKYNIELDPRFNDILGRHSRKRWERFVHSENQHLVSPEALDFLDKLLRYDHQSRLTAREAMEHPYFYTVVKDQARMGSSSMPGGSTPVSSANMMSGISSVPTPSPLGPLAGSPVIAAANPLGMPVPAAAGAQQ
Chain of CK2A1 (CK2α/β) (P67870 whole entry partner, species assumed): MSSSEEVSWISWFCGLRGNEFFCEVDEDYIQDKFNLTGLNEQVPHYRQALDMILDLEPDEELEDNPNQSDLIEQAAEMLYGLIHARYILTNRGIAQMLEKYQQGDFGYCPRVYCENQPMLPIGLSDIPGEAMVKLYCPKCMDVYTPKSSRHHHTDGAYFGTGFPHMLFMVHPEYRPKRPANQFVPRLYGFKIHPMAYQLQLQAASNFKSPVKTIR

| SMILES | IC50 |
| --- | --- |
| CCNc1nc(Nc2cc(C#N)cc(N3CC[C@@H](NC(=O)OC)[C@H](OC(=O)Cc4ccc(OP(=O)(O)O)cc4)C3)c2Cl)nn2c(C#N)cnc12 [Example 344, (3R,4R)-1-(2-chloro-5-cyano-3-((7-cyano-4-(ethylamino)imidazo[2,1-f][1,2,4]triazin-2-yl)amino)phenyl)-4-((methoxycarbonyl)amino)piperidin-3-yl 2-(4-(phosphonooxy)phenyl)acetate] | 3 nM |

Same assay, conditions: Table A; read-out: CK2A1 (CK2α/β) (IC50)

| SMILES | IC50 |
| --- | --- |
| CCNc1nc(Nc2cc(C#N)cc(N3CCC(N)CC3)c2Cl)nn2c(C#N)cnc12 [Example 329, 2-((3-(4-aminopiperidin-1-yl)-2-chloro-5-cyanophenyl)amino)-4-(ethylamino)imidazo[2,1-f][1,2,4]triazine-7-carbonitrile] | 0.34 nM |
| CCNc1nc(Nc2cc(C#N)cc(N3CC[C@H](NC(=O)OC)[C@H](F)C3)c2Cl)nn2c(C#N)cnc12 [Example 331, methyl ((3R,4S)-1-(2-chloro-5-cyano-3-((7-cyano-4-(ethylamino)imidazo[2,1-f][1,2,4]triazin-2-yl)amino)phenyl)-3-fluoro-4-piperidinyl)carbamate] | 2.32 nM |
| CCNc1nc(Nc2cc(C#N)cc(N3CC[C@@H](NC(=O)OCC)[C@H](O)C3)c2Cl)nn2c(C#N)cnc12 [Example 332, ethyl ((3R,4R)-1-(2-chloro-5-cyano-3-((7-cyano-4-(ethylamino)imidazo[2,1-f][1,2,4]triazin-2-yl)amino)phenyl)-3-hydroxypiperidin-4-yl)carbamate] | 0.41 nM |
| CCNc1nc(Nc2cc(C#N)cc(N3CC[C@@H](NC(=O)OC)[C@H](OC(=O)[C@H](C)OP(=O)(O)O)C3)c2Cl)nn2c(C#N)cnc12 [Example 340, (S)-(3R,4R)-1-(2-chloro-5-cyano-3-((7-cyano-4-(ethylamino)imidazo[2,1-f][1,2,4]triazin-2-yl)amino)phenyl)-4-((methoxycarbonyl)amino)piperidin-3-yl 2-(phosphonooxy)propanoate] | 6 nM |
| CCNc1nc(Nc2cc(C#N)cc(N3CC[C@@H](NC(=O)OC)[C@H](OC(=O)[C@H](C)O)C3)c2Cl)nn2c(C#N)cnc12 [Example 341, (S)-(3R,4R)-1-(2-chloro-5-cyano-3-((7-cyano-4-(ethylamino)imidazo[2,1-f][1,2,4]triazin-2-yl)amino)phenyl)-4-((methoxycarbonyl)amino)piperidin-3-yl 2-hydroxypropanoate] | 1 nM |
| CCNc1nc(Nc2cc(C#N)cc(N3CC[C@@H](NC(=O)OC)[C@H](OC(=O)CCCOP(=O)(O)O)C3)c2Cl)nn2c(C#N)cnc12 [Example 343, (3R,4R)-1-(2-chloro-5-cyano-3-((7-cyano-4-(ethylamino)imidazo[2,1-f][1,2,4]triazin-2-yl)amino)phenyl)-4-((methoxycarbonyl)amino)piperidin-3-yl 4-(phosphonooxy)butanoate] | 3 nM |
| CCNc1nc(Nc2cc(C#N)cc(N3CC[C@@H](NC(=O)OC)[C@H](OCOP(=O)(O)O)C3)c2Cl)nn2c(C#N)cnc12 [Example 345, sodium (((3R,4R)-1-(2-chloro-5-cyano-3-((7-cyano-4-(ethylamino)imidazo[2,1-f][1,2,4]triazin-2-yl)amino)phenyl)-4-((methoxycarbonyl)amino)piperidin-3-yl)oxy)methyl phosphate] | 0.8 nM |
| CCNc1nc(Nc2cc(C#N)cc(N3CC[C@@H](NC(=O)OC)[C@H](OC(=O)[C@@H](N)C(C)C)C3)c2Cl)nn2c(C#N)cnc12 [Example 346, (S)-(3R,4R)-1-(2-chloro-5-cyano-3-((7-cyano-4-(ethylamino)imidazo[2,1-f][1,2,4]triazin-2-yl)amino)phenyl)-4-((methoxycarbonyl)amino)piperidin-3-yl 2-amino-3-methylbutanoate] | 2.03 nM |
| CCNc1nc(Nc2cc(C#N)cc(C3CCN(C4COC4)CC3)c2Cl)nn2c(C#N)cnc12 [Example 349, 2-((2-chloro-5-cyano-3-(1-(oxetan-3-yl)piperidin-4-yl)phenyl)amino)-4-(ethylamino)imidazo[2,1-f][1,2,4]triazine-7-carbonitrile] | 2.75 nM |
| CCNc1nc(Nc2cc(C#N)cc(C3CCN(C)CC3)c2Cl)nn2c(C#N)cnc12 [Example 351, 2-((2-chloro-5-cyano-3-(1-methyl-4-piperidinyl)phenyl)amino)-4-(ethylamino)imidazo[2,1-f][1,2,4]triazine-7-carbonitrile] | 0.88 nM |
| CCNc1nc(Nc2cc(C#N)cc(C3CCN(CCOC)CC3)c2Cl)nn2c(C#N)cnc12 [Example 352, 2-((2-chloro-5-cyano-3-(1-(2-methoxyethyl)-4-piperidinyl)phenyl)amino)-4-(ethylamino)imidazo[2,1-f] [1,2,4]triazine-7-carbonitrile] | 2.73 nM |
| CCNc1nc(Nc2cc(C#N)cc(C3CCN(C4CN(C(C)=O)C4)CC3)c2Cl)nn2c(C#N)cnc12 [Example 356, 2-((3-(1-(1-acetyl-3-azetidinyl)-4-piperidinyl)-2-chloro-5-cyanophenyl)amino)-4-(ethylamino)imidazo [2,1-f][1,2,4]triazine-7-carbonitrile] | 0.72 nM |
| CN1CCC(N2CC(c3cc(C#N)cc(Nc4nc(NC5CC5)c5ncc(C#N)n5n4)c3Cl)C2)CC1 [Example 357, 2-((2-chloro-5-cyano-3-(1-(1-methylpiperidin-4-yl)azetidin-3-yl)phenyl)amino)-4-(cyclopropylamino)imidazo[2,1-f][1,2,4]triazine-7-carbonitrile] | 1.68 nM |

Next, values leading:

| IC50 | SMILES |
| --- | --- |
| 16 nM | CCNc1nc(Nc2cc(C#N)cc(N3CC[C@@H](NC(=O)OC)[C@H](OP(=O)(O)O)C3)c2Cl)nn2c(C#N)cnc12 [Example 337, methyl ((3R,4R)-1-(2-chloro-5-cyano-3-((7-cyano-4-(ethylamino)imidazo[2,1-f][1,2,4]triazin-2-yl)amino)phenyl)-3-(phosphonooxy)piperidin-4-yl)carbamate] |
| 5.23 nM | CCNc1nc(Nc2cc(C#N)cc(C3CCN(C4CN(S(C)(=O)=O)C4)CC3)c2Cl)nn2c(C#N)cnc12 [Example 355, 2-((2-chloro-5-cyano-3-(1-(1-(methylsulfonyl)-3-azetidinyl)-4-piperidinyl)phenyl)amino)-4-(ethylamino)imidazo[2,1-f][1,2,4]triazine-7-carbonitrile] |
| 3.97 nM | CCNc1nc(Nc2cc(C#N)cc(N3C[C@@H](C)[C@@H](NC(=O)OC)C3)c2Cl)nn2c(C#N)cnc12 [Example 335, methyl ((3R,4R)-1-(2-chloro-5-cyano-3-((7-cyano-4-(ethylamino)imidazo[2,1-f][1,2,4]triazin-2-yl)amino)phenyl)-4-methyl-3-pyrrolidinyl)carbamate] |
| 1.74 nM | [2H]C1(N2CCC(c3cc(C#N)cc(Nc4nc(NCC)c5ncc(C#N)n5n4)c3Cl)CC2)COC1 [Example 350, 2-((2-chloro-5-cyano-3-(1-(3-~2~H)-3-oxetanyl-4-piperidinyl)phenyl)amino)-4-(ethylamino)imidazo[2,1-f][1,2,4]triazine-7-carbonitrile] |
| 1.1 nM | CCNc1nc(Nc2cc(C#N)cc(N3C[C@H](NC(=O)OC)[C@H](OC)C3)c2Cl)nn2c(C#N)cnc12 [Example 334, methyl ((3S,4R)-1-(2-chloro-5-cyano-3-((7-cyano-4-(ethylamino)imidazo[2,1-f][1,2,4]triazin-2-yl)amino)phenyl)-4-methoxy-3-pyrrolidinyl)carbamate] |
| 0.87 nM | CCNc1nc(Nc2cc(C#N)cc(C3CCN(CC(C)(C)O)CC3)c2Cl)nn2c(C#N)cnc12 [Example 353, 2-((2-chloro-5-cyano-3-(1-(2-hydroxy-2-methylpropyl)-4-piperidinyl)phenyl)amino)-4-(ethylamino)imidazo[2,1-f][1,2,4]triazine-7-carbonitrile] |
| 0.87 nM | N#Cc1cc(Nc2nc(NC3CC3)c3ncc(C#N)n3n2)c(Cl)c(C2CN(C3COC3)C2)c1 [Example 358, 2-((2-chloro-5-cyano-3-(1-(oxetan-3-yl)azetidin-3-yl)phenyl)amino)-4-(cyclopropylamino)imidazo[2,1-f][1,2,4]triazine-7-carbonitrile] |
| 0.82 nM | CCNc1nc(Nc2cc(C#N)cc(N3CC[C@H](NC(=O)OC)[C@@H](OP(=O)(O)O)C3)c2Cl)nn2c(C#N)cnc12 [Example 338, methyl ((3S,4S)-1-(2-chloro-5-cyano-3-((7-cyano-4-(ethylamino)imidazo[2,1-f][1,2,4]triazin-2-yl)amino)phenyl)-3-(phosphonooxy)-4-piperidinyl)carbamate] |
| 0.57 nM | COCCN1CC(N2CCC(c3cc(C#N)cc(Nc4nc(NC5CC5)c5ncc(C#N)n5n4)c3Cl)CC2)C1 [Example 325, 2-((2-chloro-5-cyano-3-(1-(1-(2-methoxyethyl)-3-azetidinyl)-4-piperidinyl)phenyl)amino)-4-(cyclopropylamino)imidazo [2,1-f][1,2,4]triazine-7-carbonitrile] |
| 0.55 nM | CCNc1nc(Nc2cc(C#N)cc(N3CCC(NC(=O)OC)CC3)c2Cl)nn2c(C#N)cnc12 [Example 330, methyl (1-(2-chloro-5-cyano-3-((7-cyano-4-(ethylamino)imidazo[2,1-f][1,2,4]triazin-2-yl)amino)phenyl)piperidin-4-yl)carbamate] |
| 0.52 nM | CCNc1nc(Nc2cc(C#N)cc(C3CCN(C(C)=O)CC3)c2Cl)nn2c(C#N)cnc12 [Example 354, 2-((3-(1-acetyl-4-piperidinyl)-2-chloro-5-cyanophenyl)amino)-4-(ethylamino)imidazo[2,1-f] [1,2,4]triazine-7-carbonitrile] |
| 0.46 nM | CCNc1nc(Nc2cc(C#N)cc(N3C[C@H](NC(=O)OC)[C@@H](OC)C3)c2Cl)nn2c(C#N)cnc12 [Example 333, methyl ((3S,4S)-1-(2-chloro-5-cyano-3-((7-cyano-4-(ethylamino)imidazo [2,1-f][1,2,4]triazin-2-yl)amino)phenyl)-4-methoxy-3-pyrrolidinyl)carbamate] |
| 0.37 nM | CCNc1nc(Nc2cc(C#N)cc(N3CC[C@@H](NC(=O)OC)[C@H](OC(=O)[C@@H](C)OP(=O)(O)O)C3)c2Cl)nn2c(C#N)cnc12 [Example 342, (R)-(3R,4R)-1-(2-chloro-5-cyano-3-((7-cyano-4-(ethylamino)imidazo[2,1-f][1,2,4]triazin-2-yl)amino)phenyl)-4-((methoxycarbonyl)amino)piperidin-3-yl 2-(phosphonooxy)propanoate] |
